# Assay results: ChEMBL document CHEMBL3244165, “Improved synthesis and in vitro antiviral activities of 5-cyanouridine and 5-cyano-2'-deoxyuridine” (J Med Chem, 1977)
# Test system: Vaccinia virus
# Experiment: Antiviral activity against Vaccinia virus infected in human skin fibroblasts assessed as inhibition of virus-induced cytopathogenicity
# Type: functional, Orthopoxvirus vaccinia
row,Compound,ID50
1,N#Cc1cn([C@@H]2O[C@H](CO)[C@@H](O)[C@H]2O)c(=O)[nH]c1=O,>7 ×10⁻⁴ M
2,N#Cc1cn([C@H]2C[C@H](O)[C@@H](CO)O2)c(=O)[nH]c1=O,2.7 ×10⁻⁵ M
3,O=c1[nH]c(=O)n([C@H]2C[C@H](O)[C@@H](CO)O2)cc1Br [BROXURIDINE],6.5 ×10⁻⁷ M
4,O=c1[nH]c(=O)n([C@H]2C[C@H](O)[C@@H](CO)O2)cc1Cl [CHLORODEOXYURIDINE],1.5 ×10⁻⁶ M
5,O=c1[nH]c(=O)n([C@H]2C[C@H](O)[C@@H](CO)O2)cc1F [FLOXURIDINE],4 ×10⁻⁷ M
6,O=c1[nH]c(=O)n([C@H]2C[C@H](O)[C@@H](CO)O2)cc1I [IDOXURIDINE],1.1 ×10⁻⁶ M
7,O=c1[nH]c(=O)n([C@H]2C[C@H](O)[C@@H](CO)O2)cc1C(F)(F)F [TRIFLURIDINE],1.3 ×10⁻⁶ M
8,Nc1ncnc2c1ncn2[C@@H]1O[C@H](CO)[C@@H](O)[C@@H]1O [VIDARABINE],2.6 ×10⁻⁵ M
